Measured values from US8846699B2, “Quinazoline derivatives as a multiplex inhibitor and method for the preparation thereof” (Hanmi Pharm. Co., Ltd., priority 2005, dated 2014).

Columns and labels:
[1] = system: Human Umbilical Vein Endothelial Cell (HUVEC); assay: Inhibitory effect on growth of human umbilical vein endothelial cell (HUVEC), MTS; type: cell-based; settings: Homo sapiens, 96 h, 10 ng/ml VEGF, absorbance 490 nm
VEGFR2 (KDR) = VEGFR2 (KDR) (Homo sapiens (Human), UniProt P35968); assay: VEGFR2 (KDR) enzyme assay, fluorescence polarization; type: biochemical; settings: 5 μM ATP, poly(Glu, Tyr) substrate
VEGFR2 (KDR), sequence (P35968 20-1356): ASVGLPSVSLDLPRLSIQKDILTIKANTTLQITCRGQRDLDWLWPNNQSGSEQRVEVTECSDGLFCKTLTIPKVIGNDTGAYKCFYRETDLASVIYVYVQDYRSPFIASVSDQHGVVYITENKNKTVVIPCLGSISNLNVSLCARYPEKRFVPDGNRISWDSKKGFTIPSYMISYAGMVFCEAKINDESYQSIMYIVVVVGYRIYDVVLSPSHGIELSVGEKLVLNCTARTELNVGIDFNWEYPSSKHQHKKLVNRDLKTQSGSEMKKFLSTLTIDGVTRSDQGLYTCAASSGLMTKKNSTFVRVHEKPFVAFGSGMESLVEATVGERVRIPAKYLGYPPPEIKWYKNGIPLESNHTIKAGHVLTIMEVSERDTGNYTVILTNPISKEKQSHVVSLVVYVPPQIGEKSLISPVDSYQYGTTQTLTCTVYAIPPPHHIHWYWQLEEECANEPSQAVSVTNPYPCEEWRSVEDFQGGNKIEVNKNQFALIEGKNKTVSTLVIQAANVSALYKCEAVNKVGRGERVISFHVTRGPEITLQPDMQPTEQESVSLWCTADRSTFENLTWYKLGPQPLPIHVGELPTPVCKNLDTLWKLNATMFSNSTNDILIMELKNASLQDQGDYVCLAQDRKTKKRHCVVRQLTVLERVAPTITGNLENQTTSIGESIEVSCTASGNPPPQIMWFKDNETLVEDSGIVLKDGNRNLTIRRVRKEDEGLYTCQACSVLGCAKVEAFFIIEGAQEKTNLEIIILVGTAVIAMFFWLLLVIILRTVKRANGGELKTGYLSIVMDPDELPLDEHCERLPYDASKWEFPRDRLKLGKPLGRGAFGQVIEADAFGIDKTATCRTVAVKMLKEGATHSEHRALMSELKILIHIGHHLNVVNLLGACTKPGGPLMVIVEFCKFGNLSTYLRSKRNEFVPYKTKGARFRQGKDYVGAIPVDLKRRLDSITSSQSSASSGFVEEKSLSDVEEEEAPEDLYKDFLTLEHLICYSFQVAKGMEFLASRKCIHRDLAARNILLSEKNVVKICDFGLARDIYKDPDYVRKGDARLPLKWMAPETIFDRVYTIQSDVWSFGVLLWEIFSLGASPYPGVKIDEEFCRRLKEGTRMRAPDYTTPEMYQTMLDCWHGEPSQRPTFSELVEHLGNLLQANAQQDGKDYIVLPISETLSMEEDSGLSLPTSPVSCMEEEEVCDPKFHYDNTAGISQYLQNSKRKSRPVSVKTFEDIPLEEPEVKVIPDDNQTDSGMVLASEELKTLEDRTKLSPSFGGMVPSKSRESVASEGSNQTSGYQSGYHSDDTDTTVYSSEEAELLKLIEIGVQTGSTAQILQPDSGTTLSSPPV
Procedure, shortened: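 Autophosphorylation read by fluorescence polarization: VEGFR2 (Proquinase) at 200 ng/10 μl with 5 μM ATP and 10 ng/ml poly(Glu,Tyr) 4:1, in 20 mM HEPES pH 7.4, 5 mM MgCl2, 2 mM MnCl2, 50 μM Na3VO4. Reaction 1 h at room temperature, EDTA stop, then anti-phosphotyrosine antibody/tracer for 30 min in the dark.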

EGFR1 (HER-1) = EGFR1 (HER-1) (Homo sapiens (Human), UniProt P00533); assay: EGFR1 (HER-1) enzyme assay, fluorescence polarization; type: biochemical; settings: 100 μM ATP, poly(Glu, Tyr) substrate
EGFR1 (HER-1), sequence (P00533 25-1210): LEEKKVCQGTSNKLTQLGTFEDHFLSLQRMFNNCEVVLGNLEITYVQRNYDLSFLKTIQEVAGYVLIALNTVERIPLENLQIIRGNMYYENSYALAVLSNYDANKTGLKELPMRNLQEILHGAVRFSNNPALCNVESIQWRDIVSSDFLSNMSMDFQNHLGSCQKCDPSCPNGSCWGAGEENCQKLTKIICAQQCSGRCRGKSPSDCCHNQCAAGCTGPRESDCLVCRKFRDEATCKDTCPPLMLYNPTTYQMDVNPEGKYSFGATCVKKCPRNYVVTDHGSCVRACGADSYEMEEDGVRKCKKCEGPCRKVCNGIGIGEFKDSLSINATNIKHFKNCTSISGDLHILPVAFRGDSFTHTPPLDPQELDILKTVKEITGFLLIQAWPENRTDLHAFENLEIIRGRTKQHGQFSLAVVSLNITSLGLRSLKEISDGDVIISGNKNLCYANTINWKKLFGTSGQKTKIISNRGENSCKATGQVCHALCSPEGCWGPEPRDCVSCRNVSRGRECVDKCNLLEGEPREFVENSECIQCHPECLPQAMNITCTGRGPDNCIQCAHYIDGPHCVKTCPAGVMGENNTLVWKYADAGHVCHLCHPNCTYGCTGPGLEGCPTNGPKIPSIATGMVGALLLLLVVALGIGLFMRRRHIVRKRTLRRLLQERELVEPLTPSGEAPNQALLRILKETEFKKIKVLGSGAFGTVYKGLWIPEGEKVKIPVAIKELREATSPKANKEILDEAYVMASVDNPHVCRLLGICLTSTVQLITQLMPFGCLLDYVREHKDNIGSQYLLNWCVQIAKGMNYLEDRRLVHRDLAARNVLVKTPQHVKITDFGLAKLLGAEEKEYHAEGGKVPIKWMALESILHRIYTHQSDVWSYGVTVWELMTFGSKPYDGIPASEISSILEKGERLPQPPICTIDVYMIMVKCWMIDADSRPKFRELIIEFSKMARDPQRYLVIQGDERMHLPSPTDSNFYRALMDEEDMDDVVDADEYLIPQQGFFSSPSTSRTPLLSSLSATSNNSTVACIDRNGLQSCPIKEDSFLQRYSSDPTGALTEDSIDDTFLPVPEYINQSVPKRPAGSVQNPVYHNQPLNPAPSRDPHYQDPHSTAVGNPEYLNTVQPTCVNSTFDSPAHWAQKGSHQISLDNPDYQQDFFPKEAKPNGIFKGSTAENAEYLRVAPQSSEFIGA

[2] = system: skin cancer cell line, A431; assay: Inhibitory effect on growth of cancer cell line A431, SRB; type: cell-based; settings: Homo sapiens, A-431, 72 h, overexpressed EGFR1 (HER-1)
Procedure, shortened: (§1)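 Cells were cultured in DMEM with 10% FBS. Compounds were applied at 10 μM with 10-fold serial dilution to 10^−4, DMSO <1%, for 72 h at 37 °C. Cells were then TCA-fixed and stained with 0.4% SRB, and absorbance was read at 570 nm after solubilisation in 10 mM Tris base.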

[3] = system: breast cancer cell line, SK-Br3; assay: Inhibitory effect on growth of cancer cell line SK-Br3, SRB; type: cell-based; settings: Homo sapiens, SK-BR-3, 72 h, overexpressed EGFR2 (HER-2)
Procedure, shortened: as §1

[4] = system: colon and rectal cancer cell line, SW-620; assay: Inhibitory effect on growth of cancer cell line SW-620, SRB; type: cell-based; settings: Homo sapiens, 72 h, not having overexpressed EGFR and EGFR2
Procedure, shortened: as §1

Compound	IC50 (VEGFR2 (KDR)) [nM]	IC50 (EGFR1 (HER-1)) [nM]	IC50 [2] [nM]	IC50 [3] [nM]	IC50 [4] [nM]	IC50 [1] [nM]
C=CC(=O)Nc1cc2c(Nc3ccc(Br)cc3F)ncnc2cc1OCCNC(=O)CN [Example 57, N-[7-[2-(2-amino-acetylamino)-ethoxy]-4-(4-bromo-2-fluoro-phenylamino)-quinazolin-6-yl]-acrylamide]	235	89	91	781	9570	379
C=CC(=O)Nc1cc2c(Nc3ccc(Br)cc3F)ncnc2cc1OCC1=NCCO1 [Example 109, N-[4-(4-bromo-2-fluoro-phenylamino)-7-(4,5-dihydro-oxazol-2-ylmethoxy)-quinazolin-6-yl]-acrylamide]	478	125	147	572	10000	486
C=CC(=O)Nc1cc2c(Nc3ccc(Br)cc3F)ncnc2cc1OCCNC(=O)NCC [Example 23, N-{4-(4-bromo-2-fluoro-phenylamino)-7-[2-(3-ethyl-ureido)-ethoxy]-quinazolin-6-yl}-acrylamide]	250	2	15	38	8100	99
C=CC(=O)Nc1cc2c(Nc3cccc(Cl)c3F)ncnc2cc1OCCNC(=O)CN(C)C [Example 117, N-[4-(3-chloro-2-fluoro-phenylamino)-7-{2-[2-(dimethylamino)-acetamido]-ethoxy}quinazolin-6-yl]-acrylamide]	945	924	1240	1260	10000	998
C=CC(=O)Nc1cc2c(Nc3ccc(Br)c(Cl)c3F)ncnc2cc1OCCNC(=O)CCN1CCCCC1 [Example 147, N-{4-(4-bromo-3-chloro-2-fluoro-phenylamino)-7-[2-(3-piperidin-1-yl-propionylamino)-ethoxy]-quinazolin-6-yl}-acrylamide]	79	12	40	125	9530	167
C=CC(=O)Nc1cc2c(Nc3ccc(Br)cc3F)ncnc2cc1OCC1CNC(=O)O1 (stereo not drawn) [Example 91, N-[4-(4-bromo-2-fluoro-phenylamino)-7-(2-oxo-oxazolidin-5-ylmethoxy)-quinazolin-6-yl]-acrylamide]	587	17	15	335	2790	696
C=CC(=O)Nc1cc2c(Nc3ccc(Br)cc3F)ncnc2cc1OCCNC(=O)CN(C)CC [Example 56, N-(4-(4-bromo-2-fluoro-phenylamino)-7-{2-[2-(ethyl-methyl-amino)-acetylamino]-ethoxy}-quinazolin-6-yl)-acrylamide]	654	198	153	128	10000	691
C=CC(=O)Nc1cc2c(Nc3ccc(Br)cc3F)ncnc2cc1OCCNC(=O)C(C)N (stereo not drawn) [Example 173, N-[7-[2-(2-amino-propionylamino)-ethoxy]-4-(4-bromo-2-fluoro-phenylamino)-quinazolin-6-yl]-acrylamide]	165	18	38	504	10000	213
C=CC(=O)Nc1cc2c(Nc3ccc(Br)cc3F)ncnc2cc1OCCNc1nccs1 [Example 90, N-{4-(4-bromo-2-fluoro-phenylamino)-7-[2-(thiazol-2-ylamino)-ethoxy]-quinazolin-6-yl}-acrylamide]	477	295	310	1280	10000	589
C=CC(=O)Nc1cc2c(Nc3ccc(Br)c(F)c3F)ncnc2cc1OCCNC(=O)CCN1CCCCC1 [Example 126, N-{4-(4-bromo-2,3-difluoro-phenylamino)-7-[2-(3-piperidin-1-yl-propionylamino)-ethoxy]-quinazolin-6-yl}-acrylamide]	140	894	1250	1370	7530	286
C=CC(=O)Nc1cc2c(Nc3ccc(Br)cc3F)ncnc2cc1OCC(CC)NC(=O)CN(C)C (stereo not drawn) [Example 160, N-{4-(4-bromo-2-fluoro-phenylamino)-7-[2-(2-dimethylamino-acetylamino)-butoxy]-quinazolin-6-yl}-acrylamide]	984	23	55	96	6550	867
C=CC(=O)Nc1cc2c(Nc3ccc(Br)cc3F)ncnc2cc1OCCNC(=O)CN(C)C [Example 25, N-[4-(4-bromo-2-fluoro-phenylamino)-7-[2-(2-dimethylamino-acetylamino)-ethoxy]-quinazolin-6-yl]-acrylamide]	584	2	16	21	5790	786

Continued by falling IC50 (VEGFR2 (KDR)), values first:

IC50 (VEGFR2 (KDR)) [nM]	IC50 (EGFR1 (HER-1)) [nM]	IC50 [2] [nM]	IC50 [3] [nM]	IC50 [4] [nM]	Compound	IC50 [1] [nM]
954	4	5	40	9580	C=CC(=O)Nc1cc2c(Nc3cc(Cl)c(Cl)cc3F)ncnc2cc1OCCNC(=O)CC [Example 137, N-[4-(4,5-dichloro-2-fluoro-phenylamino)-7-(2-propionylamino-ethoxy)-quinazolin-6-yl]-acrylamide]	951
785	109	104	4340	3670	C=CC(=O)Nc1cc2c(Nc3ccc(Br)cc3F)ncnc2cc1SCCNC(C)=O [Example 43, N-[7-(2-acetylamino-ethylsulfanyl)-4-(4-bromo-2-fluoro-phenylamino)-quinazolin-6-yl]-acrylamide]	987
782	76	86	236	10000	C=CC(=O)Nc1cc2c(Nc3ccc(Br)cc3F)ncnc2cc1OCCNC(=O)N1CCN(C(C)=O)CC1 [Example 95, 4-acetyl-piperazine-1-carboxylic acid {2-[6-acryloylamino-4-(4-bromo-2-fluoro-phenylamino)-quinazolin-7-yloxy]-ethyl}-amide]	786
782	12	14	178	2890	C=CC(=O)Nc1cc2c(Nc3cc(F)c(Br)cc3F)ncnc2cc1OCCNC(C)=O [Example 119, N-[7-(2-acetylamino-ethoxy)-4-(4-bromo-2,5-difluoro-phenylamino)-quinazolin-6-yl]-acrylamide]	921
687	59	63	142	9560	C=CC(=O)Nc1cc2c(Nc3ccc(Br)cc3F)ncnc2cc1OCCN(C)C(C)=O [Example 42, N-[7-[2-(acetyl-methyl-amino)-ethoxy]-4-(4-bromo-2-fluoro-phenylamino)-quinazolin-6-yl]-acrylamide]	786
264	29	28	176	4520	C=CNC(=O)NCCOc1cc2ncnc(Nc3ccc(Br)cc3F)c2cc1NC(=O)C=C [Example 39, N-{4-(4-bromo-2-fluoro-phenylamino)-7-[2-(3-vinyl-ureido)-ethoxy]-quinazolin-6-yl}-acrylamide]	325
147	16	15	41	9560	C=CC(=O)Nc1cc2c(Nc3ccc(Br)c(Cl)c3F)ncnc2cc1OCCNC(=O)CO [Example 149, N-{4-(4-bromo-3-chloro-2-fluoro-phenylamino)-7-[2-(2-hydroxy-acetylamino)-ethoxy]-quinazolin-6-yl}-acrylamide]	204
131	3	48	283	3060	C=CC(=O)Nc1cc2c(Nc3ccc(Br)cc3F)ncnc2cc1OCC1CCN(C(C)=O)CC1 [Example 1, N-[7-(1-acetyl-piperidin-4-ylmethoxy)-4-(4-bromo-2-fluoro-phenylamino)-quinazolin-6-yl]-acrylamide]	85
66	19	15	71	9570	C=CC(=O)Nc1cc2c(Nc3ccc(Br)cc3F)ncnc2cc1OCCNC(=O)C=CC [Example 50, but-2-enoic acid {2-[6-acryloylamino-4-(4-bromo-2-fluoro-phenylamino)-quinazolin-7-yloxy]-ethyl}-amide]	101
56	13	12	37	10000	C=CC(=O)Nc1cc2c(Nc3ccc(Br)c(Cl)c3F)ncnc2cc1OCCNC(C)=O [Example 141, N-[7-(2-acetylamino-ethoxy)-4-(4-bromo-3-chloro-2-fluoro-phenylamino)-quinazolin-6-yl]-acrylamide]	66
